One may read the IC50 as the concentration that inhibits the measured activity by half.

The structures appear in SMILES notation.

The values below come from patent US8399465B2, “Compounds with two fused bicyclic heteroaryl moieties as modulators of leukotriene A4 hydrolase” (Janssen Pharmaceutica NV, priority 2009, dated 2013).

The test system of assay [1] is ex vivo calcium ionophore-stimulated LTB4 production in whole blood. Description: Murine arachidonic acid-induced inflammation model: ex vivo stimulated LTB4 production in blood. Also on record: species or system Balb/c mice. As to conditions: Mus musculus; 30 mg/kg oral gavage; blood diluted 1:1, A23187 stimulated ex vivo; percent inhibition of LTB4 production; read-out: % Inh. LTB4. Here is the method:
(§1) Assay 3: Murine Arachidonic Acid-Induced Inflammation Model
(§2) LTA4H inhibitor compounds of the present invention were dissolved in 20% cyclodextran/H2O at a concentration of 3 mg/mL. The solutions were administered by oral gavage to female Balb/c mice weighing approximately 20 grams each (0.2 mL per mouse, 30 mg of LTA4H inhibitor compound per kg). Sixty minutes after being administered an LTA4 inhibitor, each mouse received topical application of 20 μL of arachidonic acid (100 mg/mL in acetone) to the left ear and 20 μL of acetone only to the right ear. After 3 h, the mice were sacrificed, blood was withdrawn in heparinized syringes, and 8 mm ear biopsies were taken. Ear biopsies were weighed to determine edema and then frozen at −80° C. until needed for determination of neutrophil influx.
The microtiter plate contents were incubated for 30 min at 37° C. in a humidified incubator. The reaction was terminated by centrifugation (833×g, 10 min at 4° C.). Supernatants were analyzed for LTB4 by a commercially available enzyme-linked immunoassay (Cayman Chemical Co.) in accordance with the manufacturer's instructions. The percent inhibition of ex vivo stimulated LTB4 production (% Inh. LTB4) was determined by comparison to animals treated identically except that the solution administered by oral gavage was devoid of inhibitor compound.

Assay [2] deals with LTB4 production in murine blood (LTA4H). Description: LTB4 production by calcium ionophore-stimulated murine blood for LTA4H inhibitor activity. Format: cell-based, CD-1 mice. As to conditions: Mus musculus; murine blood diluted 1 in 15, A23187 stimulated; single determination or average; mark after value = form tested: ′ free base, ″ hydrochloride, ^ formate; read-out: IC50. Summed up:
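Heparinized blood from CD-1 mice was preincubated with compound for 15 min at 37° C, then stimulated with calcium ionophore A23187 (final 7 μg/mL) for 30 min. Centrifugation stopped the reaction, and LTB4 in the supernatant was measured by enzyme immunoassay. Values are single determinations or means of two or more.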

The test system of assay [3] is arachidonic acid-induced neutrophil influx in murine ear tissue. Description: Murine arachidonic acid-induced inflammation model: neutrophil influx (myeloperoxidase) in ear. Format: in vivo, Balb/c mice. As to conditions: Mus musculus; 30 mg/kg oral gavage, 60 min before topical arachidonic acid, ear biopsy after 3 h; percent inhibition of neutrophil influx; read-out: % Inh. MPO. Here is the method:
as §1, §2
Neutrophil influx was quantified by measuring the activity of myeloperoxidase (MPO), a neutrophil-specific enzyme. […] Debris was removed by centrifugation at 14000×g for 10 min. […] The microtiter plate contents were held at room temperature until the sample with the highest concentration of MPO reached an absorbance value of 0.4 at 650 nm. The reaction was stopped by addition of 50 μL 1 M H2SO4 to each sample well, and the myeloperoxidase activity in each sample was determined from the absorbance at […]. The background value from the right ear, treated only with acetone, was subtracted from that for the left ear, treated with arachidonic acid in acetone, for each animal. The percent inhibition of neutrophil influx (% Inh. MPO) by compounds of the invention was determined by comparison to animals treated identically, except that the solution administered by oral gavage was devoid of inhibitor compound. All compounds were assayed in their free base form.

Assay [4] addresses T1, recombinant human LTA4 hydrolase (rhLTA4H) (Homo sapiens, UniProt P09960).
T1 construct: made in house; host or cells: Spodoptera frugiperda (Sf-9) cells, baculovirus (pFastBac1)
T1 sequence (P09960 1-611): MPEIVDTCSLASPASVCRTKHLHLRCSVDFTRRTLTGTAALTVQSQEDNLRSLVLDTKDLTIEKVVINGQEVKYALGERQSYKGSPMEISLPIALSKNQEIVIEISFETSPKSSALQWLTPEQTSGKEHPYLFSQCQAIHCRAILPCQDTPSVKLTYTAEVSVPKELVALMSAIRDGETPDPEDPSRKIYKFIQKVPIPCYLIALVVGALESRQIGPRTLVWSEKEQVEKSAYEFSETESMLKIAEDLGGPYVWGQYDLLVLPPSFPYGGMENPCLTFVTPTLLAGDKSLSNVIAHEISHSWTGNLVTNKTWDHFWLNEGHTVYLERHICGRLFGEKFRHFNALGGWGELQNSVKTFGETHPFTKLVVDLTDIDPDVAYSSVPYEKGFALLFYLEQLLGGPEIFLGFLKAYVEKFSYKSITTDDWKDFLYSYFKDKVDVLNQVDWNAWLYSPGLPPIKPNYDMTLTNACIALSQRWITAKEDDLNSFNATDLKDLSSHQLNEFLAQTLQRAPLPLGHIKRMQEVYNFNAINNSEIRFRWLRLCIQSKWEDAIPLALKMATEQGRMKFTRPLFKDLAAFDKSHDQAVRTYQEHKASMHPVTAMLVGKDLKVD
Description: Recombinant human LTA4 hydrolase assay for LTA4 hydrolase inhibitor activity. Format: biochemical. As to conditions: rhLTA4H, LTB4 by immunoassay; single determination or average of two or more; mark after value = form tested: ′ free base, ″ hydrochloride, ^ formate; read-out: IC50. The gist of the method:
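Baculovirus/Sf-9-expressed human LTA4H (10 ng) was preincubated 10 min at rt with compound in assay buffer (10% DMSO in compound dilution), then reacted 30 min at rt with LTA4 free acid made from its methyl ester. LTB4 produced was measured by ELISA after dilution; IC50 from non-linear regression, single or averaged determinations.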

`c1cnc2nc(Oc3ccc4c(CCN5CCOCC5)coc4c3)sc2c1` [Example 256, 2-[3-(2-Morpholin-4-yl-ethyl)-benzofuran-6-yloxy]-thiazolo[4,5-b]pyridine]: the inhibition at 30 mg/kg was found to be 68.4% in assay [1] and 83% in assay [3]. Also, the figures for the IC50 in assay [2] and in assay [4] were 260 nM and 61 nM, respectively.

Regarding `NC(=O)NC1CCN(Cc2coc3cc(Oc4nc5ncccc5s4)ccc23)CC1` [Example 240, {1-[6-(Thiazolo[4,5-b]pyridin-2-yloxy)-benzofuran-3-ylmethyl]-piperidin-4-yl}-urea], the inhibition at 30 mg/kg in assay [1] was determined as 50%; in assay [3], 0%. The IC50 in assay [2] came out at 70 nM; in assay [4] it was 5 nM.

Turning to `NC(=O)N1C[C@H]2C[C@@H]1CN2Cc1cc2cc(Oc3nc4ncccc4s3)ccc2o1` [Example 101, (1R,4R)-5-[5-(Thiazolo[4,5-b]pyridin-2-yloxy)-benzofuran-2-ylmethyl]-2,5-diaza-bicyclo[2.2.1]heptane-2-carboxylic acid amide], the inhibition at 30 mg/kg in assay [1] turned out to be 53%; in assay [3], 65%. Moreover, the IC50 in assay [2] is 202 nM; in assay [4], 52 nM.

On to `C[C@H]1COCCN1Cc1c[nH]c2cc(Oc3nc4ncccc4s3)ccc12` [Example 41, (3S)-2-[3-(3-Methyl-morpholin-4-ylmethyl)-1H-indol-6-yloxy]-thiazolo[4,5-b]pyridine], for which the inhibition at 30 mg/kg was determined as 65% in assay [1] and 62% in assay [3]. The IC50 in assay [2] was 34 nM; in assay [4] it was 4 nM.

On to `CC(=O)N1C[C@@H]2CC[C@H]1CN2Cc1cc2ccc(Oc3nc4ncccc4s3)cc2o1` [Example 170, meso-1-{5-[6-(Thiazolo[4,5-b]pyridin-2-yloxy)-benzofuran-2-ylmethyl]-2,5-diaza-bicyclo[2.2.2]oct-2-yl}-ethanone], for which the figures for the inhibition at 30 mg/kg in assay [1] and in assay [3] were 76% and 70%, respectively. The IC50 in assay [2] was 80 nM; in assay [4], 5 nM.

As to `COC[C@@H]1CCCN1Cc1coc2cc(Oc3nc4ncccc4s3)ccc12` [Example 186, (2S)-2-[3-(2-Methoxymethyl-pyrrolidin-1-ylmethyl)-benzofuran-6-yloxy]-thiazolo[4,5-b]pyridine], the inhibition at 30 mg/kg in assay [1] worked out at 86%; in assay [3], 79%. The IC50 in assay [2] was determined as 6 nM; in assay [4] it was 1 nM.

For the compound `NC(=O)N[C@H]1C[C@H]2CC[C@@H](C1)N2Cc1cc2cc(Oc3nc4ncccc4s3)ccc2o1` [Example 103, meso-endo-N-{8-[5-(Thiazolo[4,5-b]pyridin-2-yloxy)-benzofuran-2-ylmethyl]-8-aza-bicyclo[3.2.1]oct-3-yl}-urea], the inhibition at 30 mg/kg in assay [1] came to 0%; in assay [3], 18%. Also, the concentration for half-maximal inhibition (IC50) in assay [2] amounted to 132 nM; in assay [4], 4 nM.

On to `CC(=O)N1C[C@@H]2C[C@H]1CN2Cc1coc2cc(Oc3nc4ncccc4s3)ccc12` [Example 154, (1S,4S)-1-{5-[6-(Thiazolo[4,5-b]pyridin-2-yloxy)-benzofuran-3-ylmethyl]-2,5-diaza-bicyclo[2.2.1]hept-2-yl}-ethanone], for which the inhibition at 30 mg/kg in assay [1] and in assay [3] was 83% throughout. For the same compound, the IC50 in assay [2] was found to be 26 nM; in assay [4], 7 nM.

With `CC(=O)N1CCCN(Cc2coc3cc(Oc4nc5ncccc5s4)ccc23)CC1` [Example 182, 1-{4-[6-(Thiazolo[4,5-b]pyridin-2-yloxy)-benzofuran-3-ylmethyl]-[1,4]diazepan-1-yl}-ethanone], the values for the inhibition at 30 mg/kg in assay [1] and in assay [3] were 85% and 67%, respectively. The concentration for half-maximal inhibition (IC50) in assay [2] turned out to be 39 nM; in assay [4] it was 9 nM.

On to `NC(=O)N1CCN(Cc2coc3cc(Oc4nc5ncccc5s4)ccc23)CC1` [Example 239, 4-[6-(Thiazolo[4,5-b]pyridin-2-yloxy)-benzofuran-3-ylmethyl]-piperazine-1-carboxylic acid amide], for which the inhibition at 30 mg/kg in assay [1] stood at 71%; in assay [3] it was 90%. Also, the IC50 turned out to be 18 nM in assay [2] and 6 nM in assay [4].

In the case of `NC(=O)C1CCN(Cc2cc3ccc(Oc4nc5ncccc5s4)cc3o2)CC1` [Example 116, 1-[6-(Thiazolo[4,5-b]pyridin-2-yloxy)-benzofuran-2-ylmethyl]-piperidine-4-carboxylic acid amide], the inhibition at 30 mg/kg came to 76% in assay [1] and 66% in assay [3]. For the same compound, the IC50 in assay [2] was 55 nM; in assay [4], 44 nM.

For `CC(=O)N1C[C@@H]2C[C@H]1CN2C(=O)c1coc2cc(Oc3nc4ncccc4s3)ccc12` [Example 371, (1S,4S)-1-{5-[6-(Thiazolo[4,5-b]pyridin-2-yloxy)-benzofuran-3-carbonyl]-2,5-diaza-bicyclo[2.2.1]hept-2-yl}-ethanone], the inhibition at 30 mg/kg in assay [1] is 54%; in assay [3], 82%. The IC50 was 84 nM in assay [2] and 25 nM in assay [4].

Turning to `CC(=O)N[C@H]1C[C@@H]2C[C@H]1CN2Cc1cc2ccc(Oc3nc4ncccc4s3)cc2o1` [Example 189, (1S,4S,5S)—N-{2-[6-(Thiazolo[4,5-b]pyridin-2-yloxy)-benzofuran-2-ylmethyl]-2-aza-bicyclo[2.2.1]hept-5-yl}-acetamide], the inhibition at 30 mg/kg is 76% in assay [1] and 84% in assay [3]. In addition, the IC50 in assay [2] was 70 nM; in assay [4], 3 nM.

With `Fc1cnc2nc(Oc3ccc4c(CN5CCOCC5)c[nH]c4c3)sc2c1` [Example 58, 6-Fluoro-2-(3-morpholin-4-ylmethyl-1H-indol-6-yloxy)-thiazolo[4,5-b]pyridine], the results for the inhibition at 30 mg/kg in assay [1] and in assay [3] were 84% and 57%, respectively. Further, the values for the IC50 in assay [2] and in assay [4] were 250 nM and 10 nM, respectively.

As to `CC(=O)N[C@H]1C[C@H]2CC[C@@H](C1)N2C(=O)c1coc2cc(Oc3nc4ncccc4s3)ccc12` [Example 369, meso-endo-N-{8-[6-(Thiazolo[4,5-b]pyridin-2-yloxy)-benzofuran-3-carbonyl]-8-aza-bicyclo[3.2.1]oct-3-yl}-acetamide], the inhibition at 30 mg/kg is 58% in assay [1] and 76% in assay [3]. Further, the 50% inhibitory concentration (IC50) was determined as 100 nM in assay [2] and 19 nM in assay [4].

Consider `CS(=O)(=O)NC1CCN(Cc2coc3cc(Oc4nc5ncccc5s4)ccc23)CC1` [Example 244, N-{1-[6-(Thiazolo[4,5-b]pyridin-2-yloxy)-benzofuran-3-ylmethyl]-piperidin-4-yl}-methanesulfonamide], for which the inhibition at 30 mg/kg in assay [1] is 80.7%; in assay [3], 89%. Besides, the IC50 in assay [2] came to 24 nM; in assay [4], 5 nM.
